Data set [1] has as its system alcohol dehydrogenase from Pichia pastoris (PPADH). The data set can be described thus: biotransformation by purified PPADH with GDH co-factor regeneration, gas chromatography. Conditions: 2 hours reaction time. Type of data set: biochemical.
The target in data set [2] is alcohol dehydrogenase from Pichia pastoris (PPADH) (Komagataella phaffii, UniProt C4R4L0). The data set is described as follows: kinetic parameters of purified PPADH by photometry. In kind it is biochemical, Pichia pastoris GS 115. How it is done: (§1) In order to determine the kinetic parameters of the recombinant PPADH, purified enzyme was manufactured as described in example 4b). Afterwards the described test for reductive activity was used. All parameters such as 100 mM tris HCl buffer (pH 7), 0.2 mM NADPH, and 10 µl enzyme (purified PPADH) were kept constant, except that concentration of substrate and concentration of co-factor were varied. The kinetic parameters were calculated using the software GraphPad Prism5 based on a non-linear ,fitting"-algorithm. Table 4: kinetic parameters of purified PPADH regarding benzaldehyde, racemic CF3-ketone as substrates and the co-factor NADPH determined by photometry

Substrate in data set [3]: O=Cc1ccccc1
The data set is described as follows: kinetic parameters of purified PPADH by photometry. In kind it is biochemical, Pichia pastoris GS 115. Particulars: other: purified PPADH, tris HCl pH 7, non-linear fitting. How it is done:
as §1

Substrate in data set [4]: CC(=O)CC(O)(c1ccccc1)C(F)(F)F
The data set is described as follows: kinetic parameters of purified PPADH by photometry. Type of data set: biochemical, Pichia pastoris GS 115. How it is done: as §1

[5] abbreviates: acetophenone derivatives, related to the alcohol formed.
Where [6] appears, read: other: purified PPADH, tris HCl pH 7, non-linear fitting.

The values that follow come from patent publication EP3222712A1, “ALCOHOL DEHYDROGENASE FROM PICHIA PASTORIS AND USE THEREOF” (priority 2016, dated 2017).

Marks after values point to notes of the source that are not given here. Bounds are passed on as bounds.

Regarding `O=C(c1ccccc1)C(F)(F)F` [2,2,2-Trifluoroacetophenone], the level of turnover entry in data set [1] (acetophenone derivatives) is “+++ (+++=20-55%)”. Besides, in data set [1] (setting [5]), the turnover was determined as 24.2%.

For the molecule `O=C(CO)c1ccccc1` [2-Hydroxyacetophenone], in data set [1] (acetophenone derivatives), the level of turnover entry is given as “+ (+=1-5%)”. In data set [1] (setting [5]), the turnover is recorded as under 5%.

For the molecule `COCC(=O)c1ccccc1` [2-Methoxyacetophenone], the level of turnover entry in data set [1] (acetophenone derivatives) is reported as “- (-=0-1%)”. The molecule further showed a turnover in data set [1] (setting [5]) of under 1%.

Turning to `O=C(c1ccc(Cl)cc1)C(F)(F)F` [4'-Chloro-2,2,2-trifluoro acetophenone], the level of turnover entry in data set [1] (acetophenone derivatives) is “++ (++=5-20%)”. The turnover in data set [1] (setting [5]) amounted to 12.4%.

For the molecule `NC(=O)C1=CN([C@@H]2O[C@H](COP(=O)(O)OP(=O)(O)OC[C@H]3O[C@@H](n4cnc5c(N)ncnc54)[C@H](OP(=O)(O)O)[C@@H]3O)[C@@H](O)[C@H]2O)C=CC1` [NADPH], in data set [2] (tris HCl pH 7), the Vmax is listed as 94.2 U/mg and the kcat was 19.5 s⁻¹. Besides, the Km in data set [2] (tris HCl pH 7, non-linear fitting) was found to be 48.3 µM.

As to `CC(=O)CC(O)(c1ccc(F)cc1)C(F)(F)F` (stereo not drawn) [Nod363 F4], in data set [1] (CF3-ketone derivatives), the level of turnover result is listed as “+++++ (+++++ = 75 - 100 %)” and the turnover entry was “quant”.

As for `CC(=O)CC(O)(c1ccc(C)cc1)C(F)(F)F` (stereo not drawn) [Nod364 F3-Enon], in data set [1] (CF3-ketone derivatives), the level of turnover entry was “+++++ (+++++ = 75 - 100 %)” and the turnover result is “quant”.

With `COc1ccc(C(O)(CC(C)=O)C(F)(F)F)cc1` (stereo not drawn) [Nod365 F6], in data set [1] (CF3-ketone derivatives), the level of turnover entry was “+++++ (+++++ = 75 - 100 %)” and the turnover entry is on record as “quant”.

For the molecule `COc1ccccc1[C@@](O)(CC(C)=O)C(F)(F)F` [Nod-3d], the level of turnover result in data set [1] (CF3-ketone derivatives) is “+++++ (+++++ = 75 - 100 %)”. Moreover, in data set [1] (CF3-ketone derivatives, alcohol formed related to the reduction of (S)-ketone), the turnover came out at 75.8%.

Turning to `CC(=O)c1ccccc1` [acetophenone], in data set [1] (acetophenone derivatives), the level of turnover result is “++ (++=5-20%)”. This molecule also registered a turnover in data set [1] (setting [5]) of 7.8%.

B1: alcohol dehydrogenase from Pichia pastoris (PPADH) (Komagataella phaffii GS115) (protein)
chain: MVSKVLLTGASGYIAQHITNELLSHGFKVIGTVRRQEQADQLHKQFSEESSVLQKDPSLLTYVLVPDIGASDAFDEVLKSTPDITYVLHTASPFIFNDDRALEDVYLKPAVEGTRNILSAIKKFANDSVKNVVVTSSFAAILNADKFEDKSFIHTEKVWNNNTWDQTKSGDRGVAYIVSKKEAEKAAWDFVEKEKPNFKLTTVNPPYVFGPQKFDASAKKESLNTSAEIVGSLLHTKYPSDDKLFDDPLNLSVDVRDVALYHVLPLLNADLASRRLLVVQSKFSAQRILNIINENFPELKGKIAVGKPEETARVEAIKGPEYNNSVTVGLTGVDPIPLEKTVVDSVKQILRANK
With B1, in data set [3], the Km is 3034.0 µM, the Vmax is on record as 98.5 U/mg, the kcat stood at 25.1 s⁻¹ and the kcat/Km was determined as 8300 M⁻¹ s⁻¹. Besides, in data set [4] (other: corrected for 50% (S)-enantiomer in the racemic substrate, pH 7.0), the Michaelis constant (Km) amounted to 899 µM. For the same molecule, in data set [4] (setting [6]), the Km is 1797.0* µM, the Vmax is 46.3 U/mg, the kcat came to 6.4 s⁻¹ and the kcat/Km was 3.6* s^-1mM^-1.
